Like-named read-outs stand apart in the source and are kept apart here.
Columns and labels:
[1] = biological target: T1, human 5-HT4B receptor (Homo sapiens, UniProt P34969); assay: cell-based; assay type: cell-based; conditions: for Emax: L-M(TK-), read-out: Emax* (% 5-HT RESPONSE)
T1 construct: The entire coding region of the human 5-HT4B receptor (1338 bp); expressed in transfected cells

[2] = biological target: T1, human 5-HT4B receptor; assay: cAMP formation in intact, transiently transfected Cos-7 cells; assay type: cell-based; conditions: for stimulation of basal cAMP release: 1 μM
[3] = biological target: T2, human 5-HT4B receptor (clone hp78a) (Homo sapiens, UniProt P34969); assay: [3H]5-HT radioligand binding to membranes of Cos-7 cells transiently expressing clone hp78a
T2 construct: The entire coding region of the human 5-HT4B receptor (1338 bp); expressed in transfected cells; host or cells: Cos-7 (monkey kidney), transient, plasmid hp78a/EXJ (pcEXV-5HT4B)

[4] = biological target: T3, 5-HT4B receptor (Rattus norvegicus, UniProt P32305); assay: [3H]5-CT receptor autoradiography on rat brain sections; assay type: binding
T3 construct: from tissue; host or cells: rat brain cryostat sections (20 µm)

[5] = test system: 5-HT receptor present in glial membranes; conditions: Fillion et al., 1980, property shared with hp78a, cited from earlier work
[6] = biological target: human 5-HT1E receptor (Homo sapiens, UniProt P28566); conditions: cited from earlier work
[7] = biological target: T4, human 5-HT1F receptor (Homo sapiens, UniProt P30939); conditions: cited from earlier work
T4 sequence (P30939 1-366): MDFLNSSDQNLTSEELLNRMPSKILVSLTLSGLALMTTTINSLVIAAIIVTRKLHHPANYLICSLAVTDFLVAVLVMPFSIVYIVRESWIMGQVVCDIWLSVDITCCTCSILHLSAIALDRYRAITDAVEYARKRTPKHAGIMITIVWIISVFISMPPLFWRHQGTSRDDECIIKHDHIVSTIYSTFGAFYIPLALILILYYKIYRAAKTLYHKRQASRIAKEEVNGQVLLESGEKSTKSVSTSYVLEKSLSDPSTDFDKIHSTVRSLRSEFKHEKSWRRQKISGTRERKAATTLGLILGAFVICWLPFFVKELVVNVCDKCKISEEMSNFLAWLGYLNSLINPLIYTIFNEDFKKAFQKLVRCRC

[8] = test system: untransfected or mock-transfected Cos-7 cells; assay: cAMP in untransfected or mock-transfected Cos-7 cells; assay type: cell-based, monkey; conditions: 1 μM
Method: Both the 5-HT-mediated inhibition and stimulation of cAMP levels were evaluated in these three intact cell preparations. Intracellular cAMP formation was measured by radioimmunoassay (cAMP Radioimmunoassay kit, Advanced Magnetics, Cambridge, Mass.) using methodology outlined by Zgombick et al. (1991). Radioactivity was quantitatied using a Packard COBRA Auto Gamma Counter (equipped with data reduction software).

[9] = normalized to the 5-HT maximal response
[10] = read-out: Ki (apparent dissociation constants for clone hp78a)
[11] = Ki (apparent dissociation constants for clone hp78a)
[12] = dissociation constant of antagonist, KB = [B]/(A′/A) − 1], read-out: KB

T1 sequence (P34969 1-445 isoform P34969-2): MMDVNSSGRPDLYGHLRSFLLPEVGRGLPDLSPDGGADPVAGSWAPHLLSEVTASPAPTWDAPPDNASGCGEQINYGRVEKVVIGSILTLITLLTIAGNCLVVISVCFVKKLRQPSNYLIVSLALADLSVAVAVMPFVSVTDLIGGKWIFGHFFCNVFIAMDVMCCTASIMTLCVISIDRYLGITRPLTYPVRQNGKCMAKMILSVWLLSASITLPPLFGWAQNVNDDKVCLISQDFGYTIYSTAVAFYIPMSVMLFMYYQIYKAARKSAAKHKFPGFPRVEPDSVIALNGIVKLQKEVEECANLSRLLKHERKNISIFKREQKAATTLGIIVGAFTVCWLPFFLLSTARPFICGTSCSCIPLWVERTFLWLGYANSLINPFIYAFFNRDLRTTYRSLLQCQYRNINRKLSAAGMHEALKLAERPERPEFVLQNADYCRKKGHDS
T2 sequence (P34969 1-445 isoform P34969-2): as above
T3 sequence (P32305 whole entry): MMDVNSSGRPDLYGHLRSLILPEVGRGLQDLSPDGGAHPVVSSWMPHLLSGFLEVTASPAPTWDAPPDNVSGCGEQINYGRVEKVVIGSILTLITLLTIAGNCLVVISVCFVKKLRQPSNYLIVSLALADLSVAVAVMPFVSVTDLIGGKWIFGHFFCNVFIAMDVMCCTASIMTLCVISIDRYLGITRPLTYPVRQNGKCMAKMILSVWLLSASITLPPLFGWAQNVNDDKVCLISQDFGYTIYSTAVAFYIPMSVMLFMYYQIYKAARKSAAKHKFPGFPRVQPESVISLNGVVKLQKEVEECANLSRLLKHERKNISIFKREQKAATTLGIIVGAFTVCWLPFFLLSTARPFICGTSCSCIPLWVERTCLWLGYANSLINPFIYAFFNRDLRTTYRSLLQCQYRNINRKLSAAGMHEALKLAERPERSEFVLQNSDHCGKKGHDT
Chain of human 5-HT1E receptor (P28566 whole entry): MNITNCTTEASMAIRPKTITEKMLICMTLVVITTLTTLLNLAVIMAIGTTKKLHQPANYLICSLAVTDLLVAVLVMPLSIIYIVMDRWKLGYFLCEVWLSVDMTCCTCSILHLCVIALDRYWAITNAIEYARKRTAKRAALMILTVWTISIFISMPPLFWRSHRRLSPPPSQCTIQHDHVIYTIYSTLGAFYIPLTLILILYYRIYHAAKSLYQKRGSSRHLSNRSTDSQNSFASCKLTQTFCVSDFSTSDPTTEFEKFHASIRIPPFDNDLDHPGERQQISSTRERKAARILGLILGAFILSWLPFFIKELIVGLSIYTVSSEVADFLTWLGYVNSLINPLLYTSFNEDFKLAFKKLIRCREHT

In the case of CCCN(CCC)C1CCc2cccc(O)c2C1 (centres unmarked), the “INTRINSIC ACTIVITY” value [1] is reported as “PARTIAL AGONIST”, the “functional character” value [1] is reported as “weak agonist” and the “Emax* (% 5-HT RESPONSE)” value [1, 9] is reported as 51 ± 14 % 5-HT RESPONSE. For the same compound, the “stimulation of basal cAMP release” value [2] was “about 2 fold”.
Compound CC(C)NCC(O)COc1cccc2[nH]ccc12 (racemic) [Pindolol] has a Ki [3, 10] of over 5000 nM.
CC(N)Cc1c[nH]c2ccc(O)cc12 (racemic) [α-Methyl-5-hydroxy-tryptamine] showed a Ki [3, 11] of 509 nM.
In the case of CC(C)NCC(O)COc1cccc2[nH]ccc12 (single isomer, unassigned; (-)) [(−)pindolol], the “effect on [3H]5-CT binding” value ([4]; masks: 100 nM PAPP and 160 nM (−)pindolol added together) is reported as “markedly reduced”.
In the case of c1ccc2c(N3CCNCC3)cccc2c1 [1-Naphthylpiperazine], the Ki [3, 10] is reported as 83 ± 19 nM.
In the case of CCN(CC)C(=O)[C@@H]1C=C2c3cccc4[nH]c(Br)c(c34)C[C@H]2N(C)C1 [2-Bromo-LSD], the “INTRINSIC ACTIVITY” value [1] is reported as “ANTAGONIST”, the Kb [1, 12] is reported as 12 ± 3 nM and the “Emax* (% 5-HT RESPONSE)” value [1, 9] is reported as 0 % 5-HT RESPONSE. For the same compound, the Ki [3, 10] was 30 ± 10 nM, the “antagonism” value [5] was “Potent antagonism” and the “% INHIBITION OF 5-HT RESPONSE” value [2] was 95 ± 4.5%. For the same compound, the “FOLD cAMP STIMULATION” value ([2]; 1 μM drug, relative to basal levels) was 0.
With NCCc1c[nH]c2ccc(OCc3ccccc3)cc12 [5-Benzyloxytryptamine] the Ki [3, 11] was 729 nM.
In the case of NCCc1c[nH]c2ccc(C(N)=O)cc12 [5-CT, 5-Carboxamidotryptamine], the Ki [6] is given as over 700 nM, the “INTRINSIC ACTIVITY” value [1] is given as “AGONIST (key: AGONIST indicates that the maximal response to the drug was at least 80% of the maximum response obtained with 5-HT)” and the “functional character” value [1] is given as “potent agonists”. For the same compound, the Emax [1] was 110 ± 19%, the Ki [7] was over 700 nM and the “agonist activity” value [2] was “potent agonists”.
For NCCc1c[nH]c2ccc(O)cc12 [5-HT, 5-Hydroxytryptamine], the “effect on basal or FSK-stimulated adenylate cyclase activity” value [8] is given as “no effect”, the “INTRINSIC ACTIVITY” value [1] is given as “AGONIST (AGONIST indicates that the maximal response to the drug was at least 80% of the maximum response obtained with 5-HT)” and the EC50 ([5]; read-out: EC50 value for 5-HT stimulation of cAMP) is given as 500 to 1000 nM. For the same compound, the “increase in cAMP release over basal levels” value [2] was 20 fold, the “stimulation of basal cAMP release” value [2] was 7 fold and the “stimulation of intracellular cAMP accumulation” value ([2]; coincubation of 1 μM FSK and 1 μM 5-HT) was 75 fold.
With COc1ccc2[nH]cc(CCN)c2c1 [5-MeOT, 5-Methoxytryptamine] the “INTRINSIC ACTIVITY” value [1] was “AGONIST (key: AGONIST indicates that the maximal response to the drug was at least 80% of the maximum response obtained with 5-HT)”, the “functional character” value [1] was “potent agonists” and the Emax [1] was 100 ± 5%. The “agonist activity” value [2] was “potent agonists”.
For CC(C)C[C@H]1C(=O)N2CCC[C@H]2[C@]2(O)O[C@](NC(=O)[C@@H]3C=C4c5cccc6[nH]c(Br)c(c56)C[C@H]4N(C)C3)(C(C)C)C(=O)N12 [Bromocriptine], the Kb [1] was 240 ± 10 nM and the Emax [1] was 0%.
CN(C)CCc1c[nH]c2ccc(O)cc12 [Bufotenin] showed a Ki [3, 11] of 26 nM.
In the case of COc1cc(CC(C)N)c(OC)cc1I (centres unmarked) [DOI], the “PERCENT INHIBITION (displacement of specific [3H]5-HT binding)” value (“PERCENT INHIBITION” below) [3] is reported as 20.
For CN1C[C@H](C(=O)N[C@]2(C)O[C@@]3(O)[C@@H]4CCCN4C(=O)[C@H](Cc4ccccc4)N3C2=O)C[C@@H]2c3cccc4[nH]cc(c34)C[C@H]21 [Dihydroergotamine], the “INTRINSIC ACTIVITY” value [1] was “ANTAGONIST”, the Emax [1] was 0% and the Kb [1, 12] was 20 ± 4 nM. It also gave a Ki [3, 11] of 6.9 ± 0.9 nM.
In the case of CCCN(CCC)CCc1c[nH]c2ccc(C(N)=O)cc12 [Dipropyl-5-carboxamidotryptamine], the EC50 [1] is reported as 2400 nM, the “Emax* (% 5-HT RESPONSE)” value [1] is reported as 86 ± 12 % 5-HT RESPONSE and the “INTRINSIC ACTIVITY” value [1] is reported as “AGONIST (key: AGONIST indicates that the maximal response to the drug was at least 80% of the maximum response obtained with 5-HT)”. For the same compound, the Ki [3, 10] was 37 ± 21 nM.
In the case of NCCc1ccc(O)c(O)c1 [Dopamine], the “PERCENT INHIBITION” value ([3]; 30 nM competitor, 5 nM [3H]5-HT, 30 min at 37° C.) is reported as 0.
With CN1C[C@H](C(=O)N[C@]2(C)O[C@@]3(O)[C@@H]4CCCN4C(=O)[C@H](Cc4ccccc4)N3C2=O)C=C2c3cccc4[nH]cc(c34)C[C@H]21 [Ergotamine] the Ki [3, 11] was 15 nM, the Ki ([3]; Ki for clone hp78a) was under 20 nM and the “effect on specific [3H]5-CT binding” value ([4]; 1 μM, 0.5 nM [3H]5-CT) was “completely eliminated”.
With Nc1nc2c(ncn2[C@@H]2O[C@H](COP(=O)(O)OP(=O)(O)NP(=O)(O)O)[C@@H](O)[C@H]2O)c(=O)[nH]1 [Gpp(NH)p, 5′-guanylylimidodiphosphate] the “reduction of high affinity [3H]5-HT binding” value [3] was 75%.
In the case of NCCc1c[nH]cn1 [Histamine], the “PERCENT INHIBITION” value ([3]; 100 nM competitor, 5 nM [3H]5-HT, 30 min at 37° C.) is reported as 10.
